## N#Cc1ccc2c(c1)C[C@H](NS(=O)(=O)c1ccccc1)CN2C(=O)c1ccccc1
  melting point: 174 to 175 °C
